Broadly, the pEC50 is the EC50 on a negative log10 scale, so that one unit is a factor of ten.

pEC50: −log10 of the molar value.

In the first assay the test system is RSV A2 strain. Description: In vitro CPE (CytoPathic Effect) inhibition effect evaluation test, RSV type A. The settings on record: human respiratory syncytial virus, HEp-2. It counts as cell-based. The protocol:
The test sample is diluted in advance to an appropriate concentration with DMSO, and 3-fold series of serial dilutions were prepared on a 384-well plate (0.32 μL/well). HEp-2 cells (CCL-23; ATCC) adjusted at appropriate number (2.4×10^5 cells/mL) in 2% FBS E-MEM (prepared by adding kanamycin and FBS to Eagle's Minimum Essential Medium; Invitrogen) were added at 12.5 μL/well to the 384-well plate previously aliquoted with the test samples. The RSV A2 strain was diluted to an appropriate concentration in a culture medium and added to the 384-well plate containing the test sample at 12.5 μL/well. The culture medium was added additionally to the 384-well plate, and the test was started with 50 μL/well. Control wells were prepared with only virus-free culture medium. The plate was incubated in a 5% CO2 incubator at 37° C. for 4 days, and the plate was then placed at room temperature for 30 minutes. CellTiter-Glo (registered trademark) 2.0 assay (Promega) was added at 15 μL/well, mixed for 30 seconds, and the plate was placed for approximately 1 hour. The luminescent signal was then measured by EnVision (PerkinElmer). The inhibitory effect of the test agents on RSV-induced CPE was calculated as 0% and 100% inhibition rate for each sample concentration based on the level of remaining viable cells by CellTiter-Glo (registered trademark) 2.0, with the EC50 value for each compound calculated by nonlinear regression as the concentration that inhibits RSV-induced CPE by 50%. In the case of evaluation against RSV type B, RSV B (Wash/18537 strain) was infected in the same manner as the type A, cultured for 5 days, and quantitated in the same manner as for the A2 strain.
A general note: Damage to the host cells serves as the signal in cytopathic effect assays.
Molecule `O=C(NC1(C(=O)O)CCCCC1)c1cnc(N2CC3(CCNCC3)c3cc(OCCC4CCOCC4)ccc32)nc1C(F)(F)F` [Compound I-89] gave a pEC50 of 5.30 to 7.00. Still for that read-out and setting: the figure for `O=C(NC1(c2nn[nH]n2)CCCCC1)c1cnc(N2CC3(CCOCC3)c3cc(OC4CCN(c5ncccn5)CC4)ccc32)nc1C(F)(F)F` [Compound I-98] is > 8.00. Still for that read-out and setting: the figure for `O=C(NC1(c2noc(=O)[nH]2)CCCCC1)c1cnc(N2CC3(CCOCC3)c3cc(OC4CCN(c5ncccn5)CC4)ccc32)nc1C(F)(F)F` [Compound I-99] is > 8.00; for `Cc1ccc2c(c1)C1(CCN(CC(F)(F)F)CC1)CN2c1ncc(C(=O)NC2(C(=O)O)C3CC4CC(C3)CC2C4)c(C(F)(F)F)n1` (stereo not shown) [Compound I-136] it is > 8.00.

Staying with this assay, now noted: human respiratory syncytial virus; inhibitory effect against RSV type A (RSV A2 strain), HEp-2 cells, CPE inhibition; read-out: EC50.
Take `O=C(NC1(C(=O)O)CCCCC1)c1cnc(N2CCc3cc(OC4CCN(c5nccc(=O)[nH]5)CC4)ccc32)nc1C(F)(F)F` [Compound I-69]: the pEC50 is 5.30 to 7.00. In the case of `O=C(NC1(C(=O)O)CCCCC1)c1cnc(N2CCc3cc(C4=CCCN(Cc5ccccc5)C4)ccc32)nc1C(F)(F)F` [Compound I-70], the pEC50 was 7.00 to 8.00. As for `O=C(NC1(C(=O)O)CCCCC1)c1cnc(N2CCc3cc(C4=CCCN(c5ncccn5)C4)ccc32)nc1C(F)(F)F` [Compound I-71], the pEC50 was > 8.00. Same read-out and setting: the figure for `O=C(NC1(C(=O)O)CCCCC1)c1cnc(N2CCc3cc(O[C@@H]4CCN(c5ncccn5)C4)ccc32)nc1C(F)(F)F` [Compound I-74] is > 8.00; for `Cc1cnn(CCOc2ccc3c(c2)CCN3c2ncc(C(=O)NC3(C(=O)O)CCCCC3)c(C(F)(F)F)n2)c1` [Compound I-75] it is 7.00 to 8.00. Still for that read-out and setting: next, `COc1ccc2c(c1)C1(CCOCC1)CN2c1ncc(C(=O)NC2(C(=O)O)CCCCC2)c(C(F)(F)F)n1` [Compound I-76]: 7.00 to 8.00; `COc1cccnc1N1CCC(Oc2ccc3c(c2)CCN3c2ncc(C(=O)NC3(C(=O)O)CCCCC3)c(C(F)(F)F)n2)CC1` [Compound I-77]: > 8.00; `COc1ccc(N2CCC(Oc3ccc4c(c3)CCN4c3ncc(C(=O)NC4(C(=O)O)CCCCC4)c(C(F)(F)F)n3)CC2)nc1` [Compound I-78]: > 8.00. `COc1ccnc(N2CCC(Oc3ccc4c(c3)CCN4c3ncc(C(=O)NC4(C(=O)O)CCCCC4)c(C(F)(F)F)n3)CC2)c1` [Compound I-79]: the pEC50 is 7.00 to 8.00. On to `O=C(NC1(C(=O)O)CCCCC1)c1cnc(N2CCc3cc(OC4CCN(c5ccncc5)CC4)ccc32)nc1C(F)(F)F` [Compound I-84], for which the pEC50 is 7.00 to 8.00. On the same count and under the same terms, the figure for `O=C(NC1(C(=O)O)CCCCC1)c1cnc(N2CC3(CCOCC3)c3cc(OCCN4CCOCC4)ccc32)nc1C(F)(F)F` [Compound I-85] is 7.00 to 8.00; for `COc1ccc2c(n1)C1(CCOCC1)CN2c1ncc(C(=O)NC2(C(=O)O)CCCCC2)c(C(F)(F)F)n1` [Compound I-90] it is 5.30 to 7.00; for `N#CC1(NC(=O)c2cnc(N3CC4(CCOCC4)c4cc(OC5CCN(c6ncccn6)CC5)ccc43)nc2C(F)(F)F)CCCCC1` [Compound I-94] it is > 8.00. The same measure, in the same setting: the figure for `COc1cccc(COc2ccc3c(n2)C2(CCOCC2)CN3c2ncc(C(=O)NC3(C(=O)O)CCCCC3)c(C(F)(F)F)n2)c1` [Compound I-103] is > 8.00; for `O=C(NC1(C(=O)O)CCCCC1)c1cnc(N2CC3(CCOCC3)c3nc(OCCC4CCOCC4)ccc32)nc1C(F)(F)F` [Compound I-106] it is > 8.00; for `O=C(NC1(C(=O)O)CCCCC1)c1cnc(N2CC3(CCOCC3)c3nc(OC4CCN(c5ncccn5)CC4)ccc32)nc1C(F)(F)F` [Compound I-108] it is > 8.00. For `CCNC(=O)N1CCC(Oc2ccc3c(c2)CCN3c2ncc(C(=O)NC3(C(=O)O)CCCCC3)c(C(F)(F)F)n2)CC1` [Compound I-112], the pEC50 was 7.00 to 8.00. Regarding `O=C(NC1(C(=O)O)C2CC3CC(C2)CC1C3)c1cnc(N2CC3(CCOCC3)c3cc(CCCC4CCOCC4)ccc32)nc1C(F)(F)F` (stereo not shown) [Compound I-114], the pEC50 was > 8.00. As to `O=C(NC1(C(=O)O)C2CC3CC(C2)CC1C3)c1cnc(N2CC3(CCOCC3)c3cc(C4CC4)ccc32)nc1C(F)(F)F` (stereo not shown) [Compound I-115], the pEC50 was > 8.00. On the same count and under the same terms, next, `Cn1cc(-c2ncc(C(=O)NC3(C(=O)O)C4CC5CC(C4)CC3C5)c(C(F)(F)F)n2)c2ccc(OCCC3CCOCC3)cc21` (stereo not shown) [Compound I-116]: > 8.00; `Cn1cc(-c2ncc(C(=O)NC3(C(=O)O)CCCCC3)c(C(F)(F)F)n2)c2ccc(OCCC3CCOCC3)cc21` [Compound I-117]: 7.00 to 8.00; `O=C(NC1(C(=O)O)C2CC3CC(C2)CC1C3)c1cnc(N2CC3(CCOCC3)c3cc(CC4CCN(c5ncccn5)CC4)ccc32)nc1C(F)(F)F` (stereo not shown) [Compound I-119]: > 8.00. Still for that read-out and setting: the figure for `COc1ccc2c(n1)C1(CCOCC1)CN2c1ccc(C(=O)NC2(C(=O)O)C3CC4CC(C3)CC2C4)c(C(F)(F)F)n1` (stereo not shown) [Compound I-120] is > 8.00; for `COc1ccc2c(c1)C1(CCOCC1)CN2c1ccc(C(=O)NC2(C(=O)O)C3CC4CC(C3)CC2C4)c(C(F)(F)F)n1` (stereo not shown) [Compound I-121] it is > 8.00; for `Cc1ccc2c(c1)C1(CCOCC1)CN2c1ccc(C(=O)NC2(C(=O)O)C3CC4CC(C3)CC2C4)c(C(F)(F)F)n1` (stereo not shown) [Compound I-122] it is > 8.00. The same measure, in the same setting: next, `O=C(NC1(C(=O)O)C2CC3CC(C2)CC1C3)c1ccc(N2CCc3cc(OCCC4CCOCC4)ccc32)cc1C(F)(F)F` (stereo not shown) [Compound I-123]: > 8.00. As to `COc1ccc2c(c1)CCN2c1ccc(C(=O)NC2(C(=O)O)C3CC4CC(C3)CC2C4)c(C(F)(F)F)c1` (stereo not shown) [Compound I-124], the pEC50 was 7.00 to 8.00.

On to `O=C(NC1(C(=O)O)C2CC3CC(C2)CC1C3)c1ccc(N2CCc3cc(OCCC4CCOCC4)cnc32)cc1C(F)(F)F` (stereo not shown) [Compound I-125], for which the negative-log EC50 (pEC50) is 7.00 to 8.00. Take `O=C(NC1(C(=O)O)C2CC3CC(C2)CC1C3)c1cnc(N2CCc3cc(OCCC4CCOCC4)cnc32)cc1C(F)(F)F` (stereo not shown) [Compound I-126]: the pEC50 was > 8.00. Same read-out and setting: next, `Cn1nc(-c2ccc(C(=O)NC3(C(=O)O)C4CC5CC(C4)CC3C5)c(C(F)(F)F)n2)c2ccc(OCCC3CCOCC3)cc21` (stereo not shown) [Compound I-127]: > 8.00. `O=C(NC1(C(=O)O)C2CC3CC(C2)CC1C3)c1cnc(N2CC3(CCOCC3)c3cc(C4=CCCC4)ccc32)nc1C(F)(F)F` (stereo not shown) [Compound I-128]: the pEC50 was > 8.00. On the same count and under the same terms, the figure for `O=C(NC1(C(=O)O)C2CC3CC(C2)CC1C3)c1cnc(N2CC3(CCOCC3)c3cc(C4CCCC4)ccc32)nc1C(F)(F)F` (stereo not shown) [Compound I-129] is > 8.00; for `COCCn1cc(-c2ncc(C(=O)NC3(C(=O)O)C4CC5CC(C4)CC3C5)c(C(F)(F)F)n2)c2ccc(OCCC3CCOCC3)cc21` (stereo not shown) [Compound I-130] it is > 8.00; for `O=C(NC1(C(=O)O)C2CC3CC(C2)CC1C3)c1cnc(-c2cn(C3CCOCC3)c3cc(OCCC4CCOCC4)ccc23)nc1C(F)(F)F` (stereo not shown) [Compound I-131] it is > 8.00.

`Cc1ccc2c(c1)C1(CCN(C(=O)OCc3ccccc3)CC1)CN2c1ncc(C(=O)NC2(C(=O)O)C3CC4CC(C3)CC2C4)c(C(F)(F)F)n1` (stereo not shown) [Compound I-132]: the pEC50 was 7.00 to 8.00.

Regarding `CCc1ccc2c(c1)C1(CCOCC1)CN2c1ncc(C(=O)NC2(C(=O)O)C3CC4CC(C3)CC2C4)c(C(F)(F)F)n1` (stereo not shown) [Compound I-133], the pEC50 is > 8.00.

In the case of `Cc1ccc2c(c1)C1(CCNCC1)CN2c1ncc(C(=O)NC2(C(=O)O)C3CC4CC(C3)CC2C4)c(C(F)(F)F)n1` (stereo not shown) [Compound I-134], the pEC50 is > 8.00.

Still in this assay, the particulars now being: inhibitory effect against RSV type A (RSV A2 strain), HEp-2 cells, CPE inhibition; read-out: EC50.
As to `CNc1nc(N2CCc3cc(OCCC4CCOCC4)ccc32)nc(C(F)(F)F)c1C(=O)NC1(C(=O)O)C2CC3CC(C2)CC1C3` (stereo not shown) [Compound I-95], the negative-log EC50 (pEC50) was > 8.00. The same measure, in the same setting: next, `O=C(NC1(C(=O)O)C2CC3CC(C2)CC1C3)c1ccc(N2CC3(CCOCC3)c3cc(OCCC4CCOCC4)ccc32)nc1C(F)(F)F` (stereo not shown) [Compound I-101]: > 8.00; `O=C(NC1(C(=O)O)C2CC3CC(C2)CC1C3)c1ccc(N2CC3(CCOCC3)c3cc(OC4CCN(c5ncccn5)CC4)ccc32)nc1C(F)(F)F` (stereo not shown) [Compound I-102]: > 8.00. Still for that read-out and setting: next, `COc1cccc(COc2ccc3c(n2)C2(CCOCC2)CN3c2ncc(C(=O)NC3(C(=O)O)C4CC5CC(C4)CC3C5)c(C(F)(F)F)n2)c1` (stereo not shown) [Compound I-104]: > 8.00.

For the molecule `O=C(NC1(C(=O)O)C2CC3CC(C2)CC1C3)c1cnc(N2CC3(CCOCC3)c3nc(OCCC4CCOCC4)ccc32)nc1C(F)(F)F` (stereo not shown) [Compound I-105], the negative logarithm of the EC50 (pEC50) is > 8.00.

Take `O=C(NC1(C(=O)O)C2CC3CC(C2)CC1C3)c1cnc(N2CC3(CCOCC3)c3nc(OC4CCN(c5ncccn5)CC4)ccc32)nc1C(F)(F)F` (stereo not shown) [Compound I-107]: the pEC50 was > 8.00. Consider `O=C(NC1(C(=O)O)C2CC3CC(C2)CC1C3)c1cnc(N2CC3(CCOCC3)c3cc(/C=C/CC4CCOCC4)ccc32)nc1C(F)(F)F` (stereo not shown) [Compound I-110], for which the negative-log EC50 (pEC50) was > 8.00. As to `O=C(NC1(C(=O)O)C2CC3CC(C2)CC1C3)c1cnc(N2CC3(CCOCC3)c3cc(C=C4CCN(C(=O)OCc5ccccc5)CC4)ccc32)nc1C(F)(F)F` (stereo not shown) [Compound I-111], the pEC50 is > 8.00.

For the origin of these results see patent US12528790B2, “Amide derivative having antiviral activity” (Shionogi & Co., Ltd., priority 2020, dated 2026).
